Measured values published in patent US20040102367A1, “Gene expression system based on chimeric receptors” (priority 2002, published 2004).

Legend:
GRU1.2D-3 = target: T1, GRU1.2D-3 (Bombyx mori, UniProt P49881); test: transient transfection luciferase expression assay (GalO-luc reporter) with VHB and GRU1.2D-3; assay type: cell-based; details: GRU1.2D-3 point mutant (Cys329 to Gly); 1 micromolar ligand, 48 hrs
T1 construct: BEcR hinge domain and HBD (corresponding to amino acids 272 to 606); expressed in transfected cells
T1 sequence (P49881 272-606): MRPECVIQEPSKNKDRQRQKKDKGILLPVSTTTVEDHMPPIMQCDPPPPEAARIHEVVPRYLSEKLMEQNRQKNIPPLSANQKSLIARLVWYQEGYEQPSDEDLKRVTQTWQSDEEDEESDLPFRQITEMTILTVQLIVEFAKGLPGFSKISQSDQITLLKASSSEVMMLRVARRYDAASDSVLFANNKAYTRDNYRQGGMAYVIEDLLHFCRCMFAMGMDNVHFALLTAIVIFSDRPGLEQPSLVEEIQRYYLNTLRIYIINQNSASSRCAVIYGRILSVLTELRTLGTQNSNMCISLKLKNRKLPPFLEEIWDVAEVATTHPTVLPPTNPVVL
Method: (§1) All construction and cloning was performed by standard methods and as described by Suhr et al., in Proc Natl Acad Sci USA 95(14):7999-8004 (1998) for similar chimeric proteins. For the VHB protein combining the transactivation domain of HSV VP16 protein with the hinge and hormone binding/heterodimerization domain (HBD) of Bombyx mori EcR (BEcR), the 77 amino acid (231 base pair) VP16 domain was amplified by PCR with an in-frame Mlul site at the 3′ end that was ligated with an identical site introduced into the 5′ end of the BEcR hinge domain and HBD (corresponding to amino acids 272 to 606). The final construct, termed VHB, functionally couples the VP16 domain with the BEcR high-affinity hormone responsive domains (see FIG. 3). This DNA was introduced into a number of expression constructs for expression in transduced cells.
(§2) The DNA-binding dimer partner protein fused the 95 amino acid Gal4 DNA binding domain via a BspE I site at the 3′ end to a region of either the RXR or Usp protein with high affinity ligand dependent interaction with BEcR. These variants used amino acids 200-462 of the human RXR alpha protein or amino acids 169-507 of the Drosophila Usp protein (see FIG. 3). These proteins are termed GR (for the RXR variant) or GU (for the Usp variant). […]

GRU variant 1.2 = target: T2, GRU variant 1.2 (Bombyx mori, UniProt P49881); test: transient transfection luciferase expression assay (GalO-luc reporter) with RXR-USP chimeric protein GRU variant 1.2; assay type: cell-based; details: 1 micromolar ligand, 48 hrs
T2 construct: BEcR hinge domain and HBD (corresponding to amino acids 272 to 606); expressed in transfected cells
T2 sequence (P49881 272-606): T1 sequence (P49881 272-606)
Method: as §1, §2

[1] = system: mammals and other non-insect species; details: extensive testing in animal hosts; cited from earlier work
EcR+Usp = target: T3, EcR+Usp (Drosophila melanogaster, UniProt P34021); details: cited from earlier work
T3 sequence (P34021 1-878): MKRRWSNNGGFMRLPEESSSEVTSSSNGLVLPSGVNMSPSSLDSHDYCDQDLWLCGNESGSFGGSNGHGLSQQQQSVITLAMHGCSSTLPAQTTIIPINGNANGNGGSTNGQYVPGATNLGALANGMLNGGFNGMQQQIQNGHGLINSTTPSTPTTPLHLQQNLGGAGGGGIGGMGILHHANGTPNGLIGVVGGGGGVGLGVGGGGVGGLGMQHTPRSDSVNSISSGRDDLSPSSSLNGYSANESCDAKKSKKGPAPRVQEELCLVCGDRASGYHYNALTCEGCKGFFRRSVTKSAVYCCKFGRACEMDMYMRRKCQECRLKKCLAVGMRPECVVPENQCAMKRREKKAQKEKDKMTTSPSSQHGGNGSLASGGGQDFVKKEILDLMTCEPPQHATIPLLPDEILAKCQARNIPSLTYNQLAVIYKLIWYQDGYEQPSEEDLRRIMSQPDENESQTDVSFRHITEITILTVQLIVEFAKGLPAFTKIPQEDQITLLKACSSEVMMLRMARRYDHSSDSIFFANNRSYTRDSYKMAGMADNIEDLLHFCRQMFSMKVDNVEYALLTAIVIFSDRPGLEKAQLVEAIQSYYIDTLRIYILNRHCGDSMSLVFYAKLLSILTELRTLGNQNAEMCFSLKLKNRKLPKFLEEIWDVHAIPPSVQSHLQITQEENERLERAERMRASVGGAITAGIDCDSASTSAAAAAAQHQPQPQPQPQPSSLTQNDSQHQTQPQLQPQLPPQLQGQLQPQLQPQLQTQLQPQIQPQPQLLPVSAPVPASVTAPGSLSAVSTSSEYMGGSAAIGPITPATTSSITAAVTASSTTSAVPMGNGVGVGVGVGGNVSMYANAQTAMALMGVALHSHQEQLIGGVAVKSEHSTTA
T3 sequence (P20153 1-508 partner): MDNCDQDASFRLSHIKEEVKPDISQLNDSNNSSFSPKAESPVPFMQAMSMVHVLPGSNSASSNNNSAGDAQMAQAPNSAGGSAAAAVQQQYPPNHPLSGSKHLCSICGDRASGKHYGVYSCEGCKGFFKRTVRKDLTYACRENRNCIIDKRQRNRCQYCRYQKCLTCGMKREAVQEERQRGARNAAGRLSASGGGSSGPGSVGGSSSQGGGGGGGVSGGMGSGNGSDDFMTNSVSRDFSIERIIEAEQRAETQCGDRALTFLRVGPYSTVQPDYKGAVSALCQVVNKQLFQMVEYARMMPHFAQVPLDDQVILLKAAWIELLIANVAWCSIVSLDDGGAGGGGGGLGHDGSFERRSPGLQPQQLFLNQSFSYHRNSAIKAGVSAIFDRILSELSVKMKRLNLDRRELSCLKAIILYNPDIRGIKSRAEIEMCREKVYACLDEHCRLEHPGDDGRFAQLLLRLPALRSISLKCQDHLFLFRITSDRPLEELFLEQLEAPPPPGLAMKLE

EcR+RXR = target: T4, EcR+RXR (Drosophila melanogaster, UniProt P34021); details: compared with 20-hydroxyecdysone; literature; cited from earlier work
T4 sequence (P34021 1-878): T3 sequence (P34021 1-878)
T4 sequence (P19793 1-462 partner): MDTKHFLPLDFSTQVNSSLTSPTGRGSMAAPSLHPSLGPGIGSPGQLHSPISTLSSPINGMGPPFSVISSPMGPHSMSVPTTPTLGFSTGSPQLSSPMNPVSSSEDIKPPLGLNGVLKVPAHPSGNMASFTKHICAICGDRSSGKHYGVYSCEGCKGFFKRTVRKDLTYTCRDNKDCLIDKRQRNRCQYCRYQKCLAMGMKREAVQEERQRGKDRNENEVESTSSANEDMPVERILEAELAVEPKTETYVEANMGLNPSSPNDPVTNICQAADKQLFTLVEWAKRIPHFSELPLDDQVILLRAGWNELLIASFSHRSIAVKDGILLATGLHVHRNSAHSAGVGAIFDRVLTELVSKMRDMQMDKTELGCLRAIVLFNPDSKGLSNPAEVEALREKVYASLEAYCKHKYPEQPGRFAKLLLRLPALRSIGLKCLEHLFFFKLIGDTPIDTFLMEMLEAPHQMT

**Q.** Which “response to ligand (transactivation)” value (GRU1.2D-3) does the source give for CCc1ccc(C(=O)NN(C(=O)c2cc(C)cc(C)c2)C(C)(C)C)cc1 [tebufenozide] here?
**A.** high level response

**Q.** What about the “response to ligand (transactivation)” value (GRU variant 1.2) of the same compound?
**A.** good response

**Q.** What about the “toxicity to mammals and other non-insect species” value [1] of the same compound?
**A.** very low toxicity

**Q.** With CC(C)(O)CC[C@@H](O)[C@](C)(O)[C@H]1CC[C@@]2(O)C3=CC(=O)[C@@H]4C[C@@H](O)[C@@H](O)C[C@]4(C)[C@H]3CC[C@]12C [20-OH ecdysone, 20-Hydroxy-ecdysone] as the compound, how does the “response to ligand (transactivation)” value (GRU1.2D-3) read?
**A.** high level response

**Q.** What about the “response to ligand (transactivation)” value (GRU variant 1.2) of the same compound?
**A.** good response

**Q.** And the “stimulation of formation of EcR+Usp heterodimers” value (EcR+Usp; literature)?
**A.** potently stimulated

**Q.** With CC(C)CC[C@@H](O)[C@](C)(O)[C@H]1CC[C@@]2(O)C3=CC(=O)[C@]4(O)C[C@@H](O)[C@@H](O)C[C@]4(C)[C@H]3[C@H](O)C[C@]12C [muristerone A] as the compound, how does the “stimulation of formation of EcR+RXR heterodimers” value (EcR+RXR) read?
**A.** more highly stimulated

**Q.** And the “stimulation of EcR+Usp binding of EcREs over levels without ligand” value (EcR+Usp; literature (Christopherson, Thomas, Yao))?
**A.** 3 to 7 fold
